# Assay results published in the supplement of paper PMC6045584.
# ± gives the standard deviation of the averaged measurements.
# Experiments:
# [1] = compound: T1, COc1cc2ncnc(Nc3ccc(F)c(Cl)c3)c2cc1OCCCN1CCOCC1 [GEFITINIB]; assay: area under dose-response curve of surviving fraction (unscaled, Aref=0) (surviving fraction x log10(nM)); higher = more resistant; conditions: exposure time: 5 days; dose range 0.5-1000 nM
# Summary of the method: (§1)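 Tumour cell lines in 384-well plates were exposed for five days to eight inhibitor concentrations from 0.5 to 1000 nM. Viability was read by CellTiter-Glo luminescence, normalised to DMSO-only wells, in three screens per line. Dose-response survival curves were fitted to surviving fractions by 3-parameter logistic regression in the drc R package. Area under the curve is the unscaled activity area (Aref = 0) over log10 dose.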
# [2] = compound: T2, COCC[n+]1c2c(n(Cc3cnccn3)c1C)C(=O)c1ccccc1C2=O [YM155]; assay: as above; conditions: exposure time: 5 days; dose range 0.5-1000 nM
# Summary of the method: as §1
# [3] = compound: CC(=O)NCC(=O)N1[C@@H]2CC[C@H]1c1ccc(Nc3ncc(C(F)(F)F)c(NC4CCC4)n3)cc12; assay: as above; conditions: exposure time: 5 days; dose range 0.5-1000 nM
# Summary of the method: as §1
# [4] = compound: T3, CC[C@@]1(O)C(=O)OCc2c1cc1n(c2=O)Cc2cc3ccccc3nc2-1 [CAMPTOTHECIN]; assay: as above; conditions: exposure time: 5 days; dose range 0.5-1000 nM
# Summary of the method: as §1
# [5] = compound: T4, CC(=O)O[C@H]1C(=O)[C@@]2(C)[C@H]([C@H](OC(=O)c3ccccc3)[C@]3(O)C[C@H](OC(=O)[C@H](O)[C@@H](NC(=O)c4ccccc4)c4ccccc4)C(C)=C1C3(C)C)[C@]1(OC(C)=O)CO[C@@H]1C[C@@H]2O [PACLITAXEL]; assay: as above; conditions: exposure time: 5 days; dose range 0.5-1000 nM
# Summary of the method: as §1
# [6] = compound: T5, C[C@]1(O)C[C@@H](c2nc(-c3ccc4ccc(-c5ccccc5)nc4c3)c3c(N)nccn32)C1 [OSI-906]; assay: as above; conditions: exposure time: 5 days; dose range 0.5-1000 nM
# Summary of the method: as §1
# [7] = compound: T6, Cc1ccc(-c2cc(C(F)(F)F)nn2-c2ccc(S(N)(=O)=O)cc2)cc1 [CELECOXIB]; assay: as above; conditions: exposure time: 5 days; dose range 0.5-1000 nM
# Summary of the method: as §1
# [8] = compound: T1, GEFITINIB; assay: surviving fraction relative to DMSO-only wells; higher = less growth inhibition; conditions: exposure time: 5 days
# Summary of the method: (§2)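 Tumour cell lines in log phase were plated in 384-well plates at 250–500 cells per well, then, after 24 hours, exposed continuously for five days to inhibitors at 0.5, 1, 5, 10, 50, 100, 500 and 1000 nM. Viability came from CellTiter-Glo luminescence, and surviving fraction is that signal normalised to the median of DMSO-only wells. Plates were read after 10 minutes at room temperature, and each line, screened three times, was kept only when replicate Pearson r was >0.7 and median Z' was >0.3.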
# [9] = compound: CC(=O)c1c(C)c2cnc(Nc3ccc(N4CCNCC4)cn3)nc2n(C2CCCC2)c1=O; assay: as above; conditions: exposure time: 5 days
# Summary of the method: as §2
# [10] = compound: T2, YM155; assay: as above; conditions: exposure time: 5 days
# Summary of the method: as §2
# [11] = compound: CC(=O)NCC(=O)N1[C@@H]2CC[C@H]1c1ccc(Nc3ncc(C(F)(F)F)c(NC4CCC4)n3)cc12; assay: as above; conditions: exposure time: 5 days
# Summary of the method: as §2
# [12] = compound: T3, CAMPTOTHECIN; assay: as above; conditions: exposure time: 5 days
# Summary of the method: as §2
# [13] = compound: O=C(O)C1(C(=O)O)CCC1.[NH2-].[NH2-].[Pt+2] [CARBOPLATIN]; assay: as above; conditions: exposure time: 5 days
# Summary of the method: as §2
# [14] = compound: T4, PACLITAXEL; assay: as above; conditions: exposure time: 5 days
# Summary of the method: as §2
# [15] = compound: T5, OSI-906; assay: as above; conditions: exposure time: 5 days
# Summary of the method: as §2
# [16] = compound: T6, CELECOXIB; assay: as above; conditions: exposure time: 5 days
# Summary of the method: as §2
test system,measurement,setting,value
SCC47 HEADNECK,area under dose-response curve,[1],3
same,area under dose-response curve,[2],1.31
same,area under dose-response curve,[3],2.87
same,area under dose-response curve,[4],2.11
same,area under dose-response curve,[5],1.02
same,area under dose-response curve,[6],3.41
same,area under dose-response curve,[7],3.63
same,surviving fraction,[8]; 0.5 nM,1.1 ± 0.034
same,surviving fraction,[8]; 1 nM,1.1 ± 0.058
same,surviving fraction,[8]; 5 nM,1.12 ± 0.043
same,surviving fraction,[8]; 10 nM,1.06 ± 0.053
same,surviving fraction,[8]; 50 nM,0.993 ± 0.017
same,surviving fraction,[8]; 100 nM,0.899 ± 0.028
same,surviving fraction,[8]; 500 nM,0.649 ± 0.018
same,surviving fraction,[8]; 1000 nM,0.602 ± 0.039
same,surviving fraction,[9]; 0.5 nM,1.12 ± 0.087
same,surviving fraction,[9]; 1 nM,1.05 ± 0.03
same,surviving fraction,[9]; 5 nM,1.13 ± 0.072
same,surviving fraction,[9]; 10 nM,1.1 ± 0.013
same,surviving fraction,[9]; 50 nM,1.17 ± 0.065
same,surviving fraction,[9]; 100 nM,1.1 ± 0.091
same,surviving fraction,[9]; 500 nM,1.1 ± 0.035
same,surviving fraction,[9]; 1000 nM,1.04 ± 0.048
same,surviving fraction,[10]; 0.5 nM,1.01 ± 0.13
same,surviving fraction,[10]; 1 nM,0.998 ± 0.023
same,surviving fraction,[10]; 5 nM,0.916 ± 0.087
same,surviving fraction,[10]; 10 nM,0.435 ± 0.069
same,surviving fraction,[10]; 50 nM,0.0263 ± 0.0025
same,surviving fraction,[10]; 100 nM,0.021 ± 0.001
same,surviving fraction,[10]; 500 nM,0.0197 ± 0.00058
same,surviving fraction,[10]; 1000 nM,0.023 ± 0.001
same,surviving fraction,[11]; 0.5 nM,0.82 ± 0.0084
same,surviving fraction,[11]; 1 nM,0.815 ± 0.033
same,surviving fraction,[11]; 5 nM,1.01 ± 0.099
same,surviving fraction,[11]; 10 nM,0.974 ± 0.1
same,surviving fraction,[11]; 50 nM,1.01 ± 0.086
same,surviving fraction,[11]; 100 nM,0.904 ± 0.058
same,surviving fraction,[11]; 500 nM,0.542 ± 0.02
same,surviving fraction,[11]; 1000 nM,0.521 ± 0.047
same,surviving fraction,[12]; 0.5 nM,0.917 ± 0.019
same,surviving fraction,[12]; 1 nM,0.924 ± 0.086
same,surviving fraction,[12]; 5 nM,0.959 ± 0.019
same,surviving fraction,[12]; 10 nM,0.919 ± 0.016
same,surviving fraction,[12]; 50 nM,0.46 ± 0.012
same,surviving fraction,[12]; 100 nM,0.375 ± 0.029
same,surviving fraction,[12]; 500 nM,0.204 ± 0.0038
same,surviving fraction,[12]; 1000 nM,0.118 ± 0.0095
same,surviving fraction,[13]; 0.5 nM,1.21 ± 0.072
same,surviving fraction,[13]; 1 nM,1.17 ± 0.042
same,surviving fraction,[13]; 5 nM,1.19 ± 0.017
same,surviving fraction,[13]; 10 nM,1.19 ± 0.071
same,surviving fraction,[13]; 50 nM,1.26 ± 0.054
same,surviving fraction,[13]; 100 nM,1.21 ± 0.16
same,surviving fraction,[13]; 500 nM,1.14 ± 0.019
same,surviving fraction,[13]; 1000 nM,1.08 ± 0.045
same,surviving fraction,[14]; 0.5 nM,1 ± 0.079
same,surviving fraction,[14]; 1 nM,0.749 ± 0.029
same,surviving fraction,[14]; 5 nM,0.37 ± 0.015
same,surviving fraction,[14]; 10 nM,0.199 ± 0.015
same,surviving fraction,[14]; 50 nM,0.143 ± 0.01
same,surviving fraction,[14]; 100 nM,0.141 ± 0.0051
same,surviving fraction,[14]; 500 nM,0.1213 ± 0.00058
same,surviving fraction,[14]; 1000 nM,0.115 ± 0.015
same,surviving fraction,[15]; 0.5 nM,0.976 ± 0.025
same,surviving fraction,[15]; 1 nM,0.952 ± 0.046
same,surviving fraction,[15]; 5 nM,1.04 ± 0.069
same,surviving fraction,[15]; 10 nM,1.02 ± 0.12
same,surviving fraction,[15]; 50 nM,1.091 ± 0.0056
same,surviving fraction,[15]; 100 nM,1.07 ± 0.062
same,surviving fraction,[15]; 500 nM,1 ± 0.011
same,surviving fraction,[15]; 1000 nM,1.04 ± 0.11
same,surviving fraction,[16]; 0.5 nM,1.08 ± 0.089
same,surviving fraction,[16]; 1 nM,1.11 ± 0.092
same,surviving fraction,[16]; 5 nM,1.09 ± 0.096
same,surviving fraction,[16]; 10 nM,1.12 ± 0.067
same,surviving fraction,[16]; 50 nM,1.094 ± 0.0075
same,surviving fraction,[16]; 100 nM,1.1 ± 0.026
same,surviving fraction,[16]; 500 nM,1.1 ± 0.054
same,surviving fraction,[16]; 1000 nM,1.11 ± 0.033
